Test results reported in US7858585B2, “Hydrogels and uses thereof” (University of Delaware, priority 2005, dated 2010).
Each block holds one compound with its values, some of them ahead of it. Square brackets hold non-standard residues; d marks the D form. Ends that are not written are not given here. Peptide text beside a SMILES is read from it.

Legend:
[1] = Temperature dependent CD of peptide folding and self-assembly (Tgel), with rheology of thermal reversibility; format: physicochemical; conditions: for Tgel, temperature at which folding and consequent self-assembly is triggered: 150 μM peptide, 125 mM Borate, 10 mM NaCl, pH 9, CD [θ]218; for reversibility of thermally induced hydrogelation: CD 150 μM and rheology 2 wt %, heating/cooling cycles 5-80° C.
From the text: At low temperature MAX1 is unfolded (and unassembled). At high temperature MAX1 folds into beta-sheet (and consequently self-assembles into a hydrogel). […] The relative hydrophobicity is MAX1>MAX2>MAX3 due to the isostructural but less hydrophobic substitutions of threonine for valine at the underlined positions. The most hydrophobic folds at the lowest temperature while the least hydrophobic folds at the highest temperature. This is a direct manifestations of the molecular parameter manipulations described in FIG. 2. Also shown are the calculated free energy of transfer of each corresponding unfolded peptide having an overall +8 charge state from octanol into water at 25° C. MAX1, the most hydrophobic has the highest free energy of transfer equal to 7.60 kcal/mol. MAX2 has a calculated transfer free energy of 6.88 kcal/mol, while the least hydrophobic MAX3 has the lowest energy of transfer of 6.45 kcal/mol.
This allows the characteristics of the hydrogels of the invention to be varied by adjusting these parameters. […] It is well known that water is better able to solvate hydrophobic groups at low temperatures. This phenomenon has been used to describe the cold denaturation of proteins where some proteins unfold at low temperatures, exposing their hydrophobic interiors to aqueous solvent. A 150 μM aqueous solution of MAX1 unfolds when cooled below room temperature. The CD spectrum at 5° C. is consistent with random coil conformation, FIG. 9A. However, warming the solution to 40° C. results in a spectra consistent with β-sheet structure. […] In fact, previous studies involving the pH induced folding and self-assembly of MAX1 were performed at 20° C. At this temperature, folding and self-assembly are slow enough to be conveniently monitored. At higher temperatures, folding and self-assembly leading to hydrogelation is fast (instantaneous to seconds depending on concentration). If the formation of hydrophobic interactions affects the folding and self-assembly process, then altering the hydrophobic content of MAX1 should affect the temperature at which folding is triggered. […] MAX2 is identical to MAX1 except that one valine residue has been replaced with the isostructural, but less hydrophobic residue, threonine. In MAX3, two valines are replaced with threonine residues. The resulting peptides vary in their hydrophobicity as evident by comparing calculated free energies of transfer from octanol into water, FIG. 9. […] Thus, the formation of hydrophobic contacts influences folding and self-assembly. […] Thus, the characteristics of the hydrogels of the invention can be varied by adjusting the amino acid residues of the peptides used to form the hydrogels to increase or decrease the hydrophobicity of the amino acid residues used.
There are reports of large polymers that are thermally responsive. The present invention provides the first system that employs temperature triggered folding to induce self-assembly. […] Heating the solution to 80° C. results in a spectra consistent with β-sheet structure. […] The temperatures used in both CD and rheology bracket the temperature (Tgel=60° C., FIG. 9) at which folding and consequent self-assembly is triggered. […] For example, free flowing peptide solutions could be prepared at room temperature and administered in vivo where the temperature of the body could induce gelation. Some Poly-N-isopropylacrylamide polymers have been engineered have been engineered to undergo such transitions ultimately affording extracellular-like scaffolds for tissue regeneration. The above studies support the idea that the formation of hydrophobic interactions are important. MAX1-3 all contain valines and threonines at hydrogen bonded positions. At these positions, their side chains prefer to adopt a trans rotamer. […]

[2] = Folding (CD) and hydrogelation of sequence variants under folding conditions; format: physicochemical; conditions: for conformation by CD under folding conditions: 150 μM, pH 9.0, 125 mM Borate, 10 mM NaCl
From the text: In some embodiments of the invention, various functionalities (e.g., cell adhesion epitopes, receptor agonists, receptor antagonists, ligands, small molecules, etc) may be incorporated into the hairpin hydrogel scaffold. One way to accomplish this would be to functionalize one or more amino acid side chains of the peptide. […] In some embodiments, the moieties to be incorporated at a particular side chain may be much larger (e.g. RGD-based motifs) and may contain charged residues. MAX5 (VKVKVKVKV^DPPTKVKEKVKV-NH2) was prepared to investigate the possibility of incorporating a charged residue on the hydrophobic face of MAX1. The sequence contains a glutamic acid residue at position 16 which is negatively charged at basic pH where MAX1 normally folds and assembles. […] However, alterations to the hydrophilic face of MAX1 are well tolerated. Sequences in which one or two lysine residues are replaced with other residues such as cysteine, serine, and glutamic acid are capable of folding and self-assembly into rigid hydrogels (data not shown).
The peptides described above contain identical turn sequences, namely (-V^DPPT-). This sequence has a strong propensity to form a type II′ turn and therefore helps to drive intramolecular folding. Since intramolecular folding must occur prior to self-assembly, alterations to this turn sequence that inhibit turn structure formation can be used to modulate intramolecular folding and self-assembly leading to hydrogelation. MAX9 was prepared to probe the importance of the turn region (VKVKVKVKV^LPPTKVKVKVKV-NH2). MAX9 is identical to MAX1 with the exception that the ^DPro at position ten has been replaced with ^LPro. Unlike the dipeptide ^DPro^LPro contained within MAX1 that favors type II′ turn formation, the ^LPro^LPro motif of MAX9 favors an open conformation. The two strands emanating from an open ^LPro^LPro conformation would be projected in opposite directions. Thus, intramolecular folding resulting in β-hairpin formation would be highly unfavored. […]

[3] = tested on: fibroblasts (NIH 3T3, mouse); assay: Fibroblast adhesion and proliferation on hydrogel by optical microscopy; format: cell-based; conditions: fresh media provided; assay stopped after 1 month
Description: These cells were used as a model system because of their importance in connective tissue development and their easily distinguished morphology when adhered to the hydrogel scaffold. Qualitative studies were performed in which cells were added to either polystyrene control wells or wells containing a uniform slab (3 mm thick) of MAX1-hydrogel. Cell adhesion was qualitatively monitored via direct observation of cell spreading after four hours from the time of initial cell seeding by optical microscopy (a quantitative cell attachment assay is described below, see also Akiyama, S. K. Functional analysis of cell adhesion: Quantitation of cell-matrix attachment, 2002; Vol. 69, pp 281-296). Non-adhered fibroblasts have rounded morphologies and adhered fibroblasts have spread morphologies Proliferation was measured both qualitatively by optical microscopy and quantitatively by a ^3H thymidine-based cell seeding assay as described below. Hydrogels were prepared in 48 well tissue culture plates by either one of the following protocols. Protocol 1: MAX1 was dissolved in water (resulting in an acidic solution, pH˜5) and an equal volume of buffer (pH 9, 250 mM borate, 20 mM NaCl) was added at room temperature to induce folding/self-assembly resulting in a 2 wt % hydrogel. The resulting gel was bathed in DMEM containing 10% calf serum and 10 mg/mL gentamicin. […]

[4] = cited from earlier work

Compound: CC(C)[C@H](N)C(=O)N[C@@H](CCCCN)C(=O)N[C@H](C(=O)N[C@@H](CCCCN)C(=O)N[C@H](C(=O)N[C@@H](CCCCN)C(=O)N[C@H](C(=O)N[C@@H](CCCCN)C(=O)N[C@H](C(=O)N1CCC[C@@H]1C(=O)N1CCC[C@H]1C(=O)N[C@H](C(=O)N[C@@H](CCCCN)C(=O)N[C@H](C(=O)N[C@@H](CCCCN)C(=O)N[C@H](C(=O)N[C@@H](CCCCN)C(=O)N[C@H](C(=O)N[C@@H](CCCCN)C(=O)N[C@H](C(N)=O)C(C)C)C(C)C)C(C)C)C(C)C)[C@@H](C)O)C(C)C)C(C)C)C(C)C)C(C)C [MAX1, VKVKVKVK V^DPPT KVKVKVKV-NH2] (H-VKVKVKVKV[dP]PTKVKVKVKV-NH2)
time cells remain viable on gel [3]: ≥ 1 month

Compound: NC(=O)CN1CCN(CC(N)=O)CCN(CC(N)=O)CCN(CC(N)=O)CC1 [DOTAM]
Kd ([4]; read-out: Kd for calcium): 29 nM

Compound: -DRKADGYIDFEE-
Kd for Ca(II) ([4]; linear peptide, calcium binding loop of Troponin C): low mM

Compound: VKVKVKVK V^DPPT KVKTKVKV-NH2 [MAX2]
reversibility of thermally induced hydrogelation [1]: not reversible
temperature above which peptide folds/self-assembles ([1]; pH 9 (10 mM NaCl)): greater than 45 °C
temperature below which peptide is unfolded ([1]; pH 9 (10 mM NaCl)): below 40 °C

Compound: VKVKVKVK VPPT KVKVKVKV-NH2 (VKVKVKVKVPPTKVKVKVKV-NH2) [MAX9]
conformation by CD under folding conditions [2]: only random coil
hydrogelation ([2]; folding conditions, 2 wt % solutions): failed to undergo hydrogelation

Now from value to compound:

Tgel, temperature at which folding and consequent self-assembly is triggered [1]: 60 °C
reversibility of thermally induced hydrogelation [1]: thermally reversible
Compound: VKVKVKTK V^DPPT KVKTKVKV-NH2 [MAX3]

conformation by CD under folding conditions [2]: random coil
Compound: VKVKVKVK V^DPPT KVKEKVKV-NH2 [MAX5]

Tgel, temperature at which folding and consequent self-assembly is triggered [1]: 20 °C
Compound: KVKVKVKV K^DPPS VKVKVKVK-NH2 [MAX4]
